According to ChEMBL document CHEMBL5357036, “Latest developments in coumarin-based anticancer agents: mechanism of action and structure-activity relationship studies” (RSC Med Chem, 2024):
Values belong to the molecule of their own block, whether it stands above or below them.

Legend:
[1] = tested on: HL-60; assay: Antiproliferative activity against human HL-60 cells assessed as cell growth inhibition measured after 72 hrs by trypan blue staining based assay; assay type: functional; details: HL-60, 72 h
[2] = tested on: KE-37; assay: Anticancer activity against human KE-37 cells assessed as reduction in cell viability; assay type: functional, cell-based
[3] = tested on: K562; assay: Antiproliferative activity against human K562 cells assessed as cell growth inhibition; assay type: functional, cell-based
[4] = tested on: MDA-MB-231; assay: Antiproliferative activity against human MDA-MB-231 cells assessed as cell growth inhibition by SRB assay; assay type: functional, cell-based
[5] = tested on: HepG2; assay: Antiproliferative activity against human HepG2 cells assessed as cell growth inhibition incubated for 48 hrs by MTT assay; assay type: functional, cell-based
[6] = tested on: PANC-1; assay: Antiproliferative activity against human PANC-1 cells assessed as cell growth inhibition incubated for 48 hrs by MTT assay; assay type: functional, cell-based; details: PANC-1, 48 h
[7] = tested on: SGC-7901; assay: Antiproliferative activity against human SGC-7901 cells assessed as cell growth inhibition; assay type: functional, cell-based
[8] = Oral bioavailability in Sprague-Dawley rat at 10 mg/kg measured up to 24 hrs by LC-MS/MS analysis; assay type: ADME, organism-based; details: in vivo
[9] = tested on: A549 (Homo sapiens); assay: Antiproliferative activity against human A549 cells assessed as cell growth inhibition incubated for 48 hrs by MTT assay; details: A549, 48 h
[10] = tested on: HeLa; assay: Anticancer activity against human HeLa cells assessed as inhibition of cell growth by SRB assay; assay type: functional, cell-based
[11] = tested on: HCT-116; assay: Antiproliferative activity against human HCT-116 cells assessed as reduction in cell viability incubated for 72 hrs by MTT assay; assay type: functional, cell-based; details: HCT-116, 72 h
[12] = tested on: MDA-MB-231; assay: Antiproliferative activity against human MDA-MB-231 cells assessed as reduction in cell proliferation incubated for 72 hrs by CellTiter-Glo reagent based assay; assay type: functional; details: MDA-MB-231, 72 h
[13] = Antiproliferative activity against human H357 cells assessed as reduction in cell proliferation incubated for 72 hrs by CellTiter-Glo reagent based assay; assay type: functional; details: H357, 72 h
[14] = tested on: SMMC-7721; assay: Antiproliferative activity against human SMMC-7721 cells assessed as reduction in cell viability incubated for 48 hrs by MTT assay; assay type: functional, cell-based; details: SMMC-7721, 48 h
[15] = tested on: Bel-7402; assay: Antiproliferative activity against human Bel-7402 cells assessed as reduction in cell viability incubated for 48 hrs by MTT assay; assay type: functional, cell-based; details: Bel-7402, 48 h
[16] = tested on: MHCC97; assay: Antiproliferative activity against human MHCC97 cells assessed as inhibition of cell growth measured after 3 days by CellTiter-Glo assay; assay type: functional, cell-based; details: MHCC97, 72 h
[17] = tested on: Hep 3B2; assay: Antiproliferative activity against human Hep3B cells assessed as reduction in cell viability incubated for 48 hrs by MTT assay; assay type: functional, cell-based
[18] = tested on: MCF7; assay: Anticancer activity against human MCF7 cells assessed as inhibition of cell growth incubated for 48 hrs by MTT assay; assay type: functional, cell-based; details: MCF7, 48 h
[19] = tested on: A-375; assay: Anticancer activity against human A-375 cells assessed as inhibition of cell growth incubated for 48 hrs by MTT assay; assay type: functional, cell-based; details: A-375, 48 h
[20] = tested on: A549; assay: Anticancer activity against human A549 cells assessed as inhibition of cell growth incubated for 48 hrs by MTT assay; assay type: functional, cell-based; details: A549, 48 h
[21] = tested on: MCF7; assay: Cytotoxicity against human MCF7 cells assessed as reduction in cell growth incubated for 5 days by MTT assay; assay type: functional, cell-based; details: MCF7, 120 h
[22] = Cytotoxicity against human HEK cells assessed as reduction in cell growth incubated for 5 days by MTT assay; assay type: functional, cell-based; details: HEK293, 120 h
[23] = tested on: 4T1; assay: Cytotoxicity against mouse 4T1 cells assessed as inhibition of cell proliferation incubated for 72 hrs by MTT assay; assay type: functional, cell-based; details: 4T1, 72 h
[24] = tested on: MCF7; assay: Cytotoxicity against human MCF7 cells assessed as inhibition of cell proliferation incubated for 72 hrs by MTT assay; assay type: functional, cell-based; details: MCF7, 72 h
[25] = tested on: HepG2; assay: Cytotoxicity against human HepG2 cells assessed as reduction in cell viability measured after 24 hrs by MTT assay; assay type: functional, cell-based; details: HepG2, 24 h
[26] = tested on: SK-OV-3; assay: Antiproliferative activity against human SK-OV-3 cells assessed as reduction in cell growth by SRB assay; assay type: functional, cell-based
[27] = tested on: MCF7; assay: Anticancer activity against human MCF7 cells after 48 hrs by SRB assay; assay type: functional, cell-based; details: MCF7, 48 h
[28] = tested on: SK-OV-3; assay: Anticancer activity against human SK-OV-3 cells assessed as reduction in cell viability incubated for 24 hrs by MTT assay; assay type: functional, cell-based; details: SK-OV-3, 24 h
[29] = tested on: MCF7; assay: Anticancer activity against human MCF7 cells assessed as inhibition of cell proliferation measured after 48 hrs by MTT assay; assay type: functional, cell-based; details: MCF7, 48 h
[30] = tested on: MCF7-DOX; assay: Antiproliferative activity against human MCF7-DOX cells assessed as reduction in cell viability incubated for 72 hrs by MTT assay; assay type: functional, cell-based
[31] = tested on: MCF7; assay: Anticancer activity against human MCF7 cells assessed as inhibition of cell proliferation measured after 72 hrs by MTT assay; assay type: functional, cell-based; details: MCF7, 72 h
[32] = tested on: MGC-803; assay: Cytotoxicity against human MGC-803 cells assessed as cell growth inhibition incubated for 24 hrs by MTT assay; assay type: functional, cell-based; details: MGC-803, 24 h
[33] = tested on: A549; assay: Cytotoxicity against human A549 cells assessed as cell growth inhibition incubated for 24 hrs by MTT assay; assay type: functional, cell-based; details: A549, 24 h
[34] = tested on: NCI-H460; assay: Cytotoxicity against human NCI-H460 cells assessed as cell growth inhibition incubated for 24 hrs by MTT assay; assay type: functional, cell-based; details: NCI-H460, 24 h
[35] = tested on: Ehrlich; assay: Cytotoxicity against mouse EAC cell assessed as reduction in cell viability by MTT assay; assay type: functional, cell-based
[36] = Cytotoxicity against mouse DLA cell assessed as reduction in cell viability by trypan blue assay; assay type: functional, cell-based
[37] = Cytotoxicity against mouse DLA cell assessed as reduction in cell viability by LDH leak assay; assay type: functional, cell-based
[38] = Cytotoxicity against rat H4-II-E cells assessed as reduction in cell viability measured after 24 hrs by MTT assay; assay type: functional, cell-based; details: H4IIE
[39] = tested on: HepG2; assay: Anticancer activity against human HepG2 cells assessed as reduction in cell viability by SRB assay; assay type: functional, cell-based
[40] = tested on: A549; assay: Anticancer activity against human A549 cells assessed as reduction in cell viability by SRB assay; assay type: functional, cell-based
[41] = tested on: DU-145; assay: Anticancer activity against human DU-145 cells assessed as reduction in cell viability by SRB assay; assay type: functional, cell-based
[42] = tested on: MCF7; assay: Anticancer activity against human MCF7 cells assessed as reduction in cell viability by SRB assay; assay type: functional, cell-based
[43] = tested on: MCF7-DOX; assay: Antiproliferative activity against human MCF7-DOX cells assessed as reduction in cell viability by SRB assay; assay type: functional, cell-based
[44] = tested on: MT4; assay: Cytotoxicity against human MT4 cells assessed as inhibition of cell growth incubated for 72 hrs by MTT assay; assay type: functional
[45] = tested on: MDA-MB-231; assay: Cytotoxicity against human MDA-MB-231 cells assessed as inhibition of cell growth incubated for 72 hrs by MTT assay; assay type: functional
[46] = tested on: MCF7; assay: Cytotoxicity against human MCF7 cells assessed as inhibition of cell growth incubated for 72 hrs by MTT assay; assay type: functional
[47] = tested on: SNB-75; assay: Antiproliferative activity against human SNB-75 cells assessed as cell growth inhibition at 10 uM by SRB assay relative to control; assay type: functional
[48] = tested on: HepG2; assay: Antiproliferative activity against human HepG2 cells assessed as reduction in cell viability incubated for 48 hrs by MTT assay; assay type: functional, cell-based; details: HepG2, 48 h
[49] = tested on: HepG2; assay: Induction of apoptosis in human HepG2 cells assessed as increase in apoptotic cells at 10 uM by Annexin V-FITC staining based flow cytometry (reference value: 13.76 %); assay type: functional
[50] = tested on: MCF7; assay: Antiproliferative activity against human MCF7 cells assessed as reduction in cell viability incubated for 48 hrs by cell titer-glo assay; assay type: functional, cell-based; details: MCF7, 48 h

IC50 [1]: 2.9 µM
IC50 [3]: 7.2 µM
IC50 [4]: 9.1 µM
SMILES: O=C(N/N=C/c1c(Cl)c2ccccc2oc1=O)c1ccccc1
IC50 [2]: 5.3 µM

IC50 [5]: 4.75 µM
IC50 [6]: 7.02 µM
IC50 [7]: 6.39 µM
bioavailability [8]: 49.4%
IC50 [9]: 4.63 µM
SMILES: COc1cc(Cl)ccc1S(=O)(=O)Nc1ccc2oc(=O)ccc2c1

IC50 [10]: 11.5 µM
SMILES: Cc1cc(=O)oc2cc(OCCOCCN3C(=O)C(=O)c4cc(F)ccc43)ccc12

IC50 [11]: 3.6 µM
SMILES: CCN(CC)c1ccc2cc(C(=O)/C=C/c3ccc(OC)c(O)c3)c(=O)oc2c1

IC50 [12]: 7.78 µM
SMILES: C/C(=N\c1ccc(S(N)(=O)=O)cc1)c1cc2ccccc2oc1=O
IC50 [13]: 8.68 µM

IC50 [18]: 5.17 µM
IC50 [19]: 9.02 µM
IC50 [20]: 4.29 µM
SMILES: Cc1ccc(NCc2cc(=O)oc3ccc4ccccc4c23)cc1

IC50 [26]: 18.6 µM
SMILES: Cc1cc(=O)oc2cc(OCCOCCN3C(=O)/C(=N/O)c4ccccc43)ccc12

IC50 [27]: 0.18 µM
SMILES: COc1ccc2nc(SCc3cc(=O)oc4ccc(C(C)(C)C)cc34)[nH]c2c1

IC50 [31]: 15.4 µM
SMILES: O=C(O)COc1ccc2ccccc2c1/C=C/C(=O)c1cc2c(ccc3ccccc32)oc1=O

IC50 [39]: 10.3 µM
IC50 [40]: 10.9 µM
IC50 [41]: 20.8 µM
IC50 [42]: 11.3 µM
IC50 [43]: 14.5 µM
SMILES: Cc1cc(=O)oc2cc(OCCOCCN3C(=O)/C(=N/O)c4cc(F)ccc43)ccc12

IC50 [48]: 3.48 µM
SMILES: C/C(=N\Nc1nc(-c2ccccc2)cs1)c1ccc(NS(=O)(=O)c2ccc3oc(=O)ccc3c2)cc1
Activity [49]: 1.75%

IC50 [50]: 2.56 µM
SMILES: CCN(C)S(=O)(=O)c1ccc(/C(C)=N/NC(=O)c2cc3ccccc3oc2=O)cc1

Second part, the molecule before the results:

SMILES: O=c1oc2ccccc2c(O)c1C(c1cccc(Oc2ccccc2)c1)c1c(O)c2ccccc2oc1=O
IC50 [14]: 6 µM
IC50 [15]: 8 µM
IC50 [16]: 7 µM
IC50 [17]: 9 µM

SMILES: CC(c1cc2ccccc2oc1=O)(c1c[nH]c2ccc(Br)cc12)c1c[nH]c2ccc(Br)cc12
IC50 [21]: 21.2 µM
IC50 [22]: > 50 µM

SMILES: O=C(Cc1cc(=O)oc2cc(O)ccc12)NCCCCCCCCCNc1c2c(nc3ccccc13)CCCC2
IC50 [23]: 5.7 µM
IC50 [24]: 6 µM

SMILES: O=C(Nc1ccc(/C=C/C(=O)c2cc3ccccc3oc2=O)cc1)Nc1ccc([N+](=O)[O-])cc1
IC50 [25]: 2.33 µM

SMILES: Cc1cc(=O)oc2cc(OCCOCCOCCOCN3C(=O)/C(=N/O)c4cc(F)ccc43)ccc12
IC50 [28]: 23.8 µM
IC50 [29]: 11.9 µM
IC50 [30]: 18.9 µM

SMILES: O=c1oc2ccccc2cc1NCc1ccc(Br)cc1
IC50 [32]: 10.2 µM
IC50 [33]: 8.75 µM
IC50 [34]: 9.25 µM

SMILES: COc1ccc(-c2csc(NC(=O)c3cc4ccc(OC)cc4oc3=O)n2)cc1
IC50 [35]: 15.3 µM
IC50 [36]: 15.6 µM
IC50 [37]: 14.2 µM

SMILES: O=C(Nc1ccc(/C=C/C(=O)c2cc3ccccc3oc2=O)cc1)Nc1ccc(C(F)(F)F)cc1
IC50 [38]: 1.62 µM

SMILES: CC(=O)c1cc2cc(Nc3c(C)cc(C)c(-c4cc5ccccc5nc4F)c3C)c(=O)oc2cc1O
GI50 [44]: 12.6 µM
GI50 [45]: 11.8 µM
GI50 [46]: 10.5 µM

SMILES: COc1cc2c3c(c(=O)oc2cc1OS(=O)(=O)c1ccc(C(F)(F)F)cc1)CCCCC3
inhibition at 10 µM [47]: 91.9%
